What was measured:
Format in all cases: in vivo
[1] = system: black cutworm (Agrotis ipsilon); test: Black cutworm systemic test (BCW-Sys); details: soil drench 10.0 ppm, corn seedling clipped ten days after treatment; mortality 4 days after infestation
From the text: (§1) For cotton aphid systemic tests and black cutwork—systemic tests, the water-acetone-DMF-emulsifier solution was adjusted for a treatment rate of 10.0 ppm soil concentration.
Black cutworm—systemic test (BCW-Sys): Corn seeds were placed on top of the soil surface in pots containing moist soil. The test compound solution was applied as a drench to the top of the soil and seeds for a treatment rate equivalent to 10.0 ppm soil concentration. As an untreated control, an aliquot of water-acetone-DMF-emulsifier solution containing no test compound was applied in a similar manner. The soil surface and seeds were covered with moist soil. The pots were held in the greenhouse for the duration of the bioassay. Ten days after treatment, the corn seedling was clipped and placed in a plastic cup with 2 late second to early third instar black cutworm larvae. Mortality was assessed visually 4 days after infestation.

[2] = system: cotton aphid (Aphis gossypii); test: Cotton aphid systemic test (CA-Sys); details: soil drench 10.0 ppm, aphid control rated three and six days after infestation
From the text: as §1
Cotton aphid—systemic test (CA-Sys): Cotton seeds were placed on top of the soil surface in pots containing moist soil. The test compound solution was applied as a drench to the top of the soil and seeds for a treatment rate equivalent to 10.0 ppm soil concentration. As an untreated control, an aliquot of a water-acetone-DMF-emulsifier solution containing no test compound was applied in a similar manner. The soil surface and seeds were covered with moist soil. The pots were held in the greenhouse for the duration of the bioassay. When the cotyledons of the cotton were expanded (approximately 7 days after planting), the cotton was infested with approximately 25 cotton aphids (mixed population). The plant were rated for aphid control three and six days after infestation.

[3] = system: American cockroach (Periplaneta americana); test: American cockroach (ACR) treated food pellet test; details: food pellets with 500 ppm formulation; nymphs, contact and feeding mortality 1 and 5 days after infestation
Protocol: (§2) For the tick, aphids, souther armyworm, tobacco budworm, house fly, Mexican bean beetle, American cockroach, cat flea, souther corn rootworm, western corn rootworm, black cutworm, and southern root-knot nematode, a solution or suspension was prepared by adding the test compound to a solution of dimethylformamide, acetone, emulsifiers which are alkylaryl polyether alcohols organic sulfonates, and water. The result was a 100 or 500 ppm concentration of the test compound.
American cockroach (ACR): Cat food or dog food pellets were added to jars containing 1-2 mls of the 500 ppm test formulation. As an untreated control, an aliquot of a water-acetone-DMF-emulsifier solution containing no test compound was applied in a similar manner. After 48 hours, roach nymphs were added to the jar. Contact and feeding mortally was assessed 1 and 5 days after infestation.

[4] = system: western corn rootworm (Diabrotica virgifera virgifera); test: Western corn rootworm (WCRW) soil test; details: soil concentration 0.15 or 0.5 ppm; neonate larvae, mortality six days after infestation
Protocol: as §2
For the western corn rootworm test, the water-acetone-DMF-emulsifier solution was adjusted for a treatment rate of 0.15 or 0.5 ppm.
Western corn rootworm (WCRW): The 500 ppm test formulation was applied to dry sandy loam soil contained in a glass jar for a soil concentration of 0.15 or 0.5 ppm. As an untreated control, an aliquot of a water-acetone-DMF-emulsifier solution containing no test compound was applied in a similar manner. After incubating covered for 24 hours, the soil was mixed and four germinated corn seedlings were added to the jar. Ten neonate western corn rootworm larvae were placed in the jar. Six days after infestation, mortality was assessed by Berlese funnel extraction.

[5] = system: southern root-knot nematode (Meloidogyne incognita); test: Southern root-knot nematode (SRKN) soil test; details: soil treatment 23 kg/ha; tomato or cotton root galling rated after 2-3 weeks
Protocol: as §2
For the southern root-knot nematode tests, the water-acetone-DMF-emulsifier solution was adjusted for a treatment rate of 23 kg/ha soil concentration.
Southern root-knot nematode (SRKN): Eggs and second stage juveniles (J2s) of southern root-knot nematodes were obtained from infected roots of reared tomato plants. Pots containing moist soil were treated with the test compound solution for a treatment rate of 23 kg/ha. As an untreated control, an aliquot of a water-acetone-DMF-emulsifier solution containing no test compound was applied in a similar manner. Immediately after treatment, eggs or J2s of southern root-knot nematode were added to the treated soil. For test with cotton, the seeds were placed on top of the soil the day of treatment and inoculation. For the tests with tomato, the seedlings were transplanted in the pot three days after treatment. The pots were kept in the greenhouse for 2-3 weeks. At the termination of the test, roots of the tomato or cotton seedlings were evaluated for galling on a rating scale from 1 to 5 with one equal to severe galling, relative to untreated control, and five to no galling, i.e., complete control.

[6] = system: greenbug aphid (Schizaphis graminum); test: Greenbug aphid systemic test (GA-Sys); details: soil drench 10 or 25 ppm, sorghum; aphid control rated one and three days after infestation
From the text: For the greenbug aphid systemic test, the water-acetone-DMF-emulsifier solution was adjusted for a treatment rate of 10 or 25 ppm soil concentration.
Greenburg aphid—systemic test (GA-Sys): Sorghum seeds were placed on top of the soil surface in pots containing moist soil. The test compound solution was applied as a drench to the top of the soil and seeds for a treatment rate equivalent to 10 or 25 ppm soil concentration. As an untreated control, an aliquot of a water-acetone-DMF-emulsifier solution containing no test compound was applied in a similar manner. The soil surface and seeds were covered with moist soil. The pots were held in the greenhouse for the duration of the bioassay. When the sorghum seeds germinated, greenbug aphids were sprinkled evenly over the sorghum pots to about 50 aphids per pot. The plants were rated for aphid control one and three days after infestation.

[7] = system: Mexican bean beetle (Epilachna varivestis); test: Mexican bean beetle (MBB) treated bean leaf test; details: bean leaves, 100 or 500 ppm; second instar larvae, five days
Protocol: as §2
(§3) Southern armyworm (SAW), Mexican bean beetle (MBB): Bean leaves were wet to runoff with the 100 or 500 ppm test compound formulation. As an untreated control, a water-acetone-DMF-emulsifier solution containing no test compound was also applied wet to runoff to bean leaves. Five or six randomly selected second instar southern armyworn larvae or Mexican bean bettle larvae were introduced into each plastic container with the dry treated leaves. The container was closed and held for five days. Larvae which were unable to move the length of the body, even upon stimulation by prodding, were considered dead.

[8] = system: cotton aphid (Aphis gossypii); test: Cotton aphid (CA) foliar spray test; details: cotton plants wet to runoff, 100 or 500 ppm; dead aphids counted after three days
Protocol: as §2
Buckthorn aphid (BA) or cotton aphid (CA): Adult and nymphal stages of buckthorn or cotton aphid were reared on potted dwarf nasturtium or cotton plants, respectively. Plants infested with 100-150 aphids were wet to runoff with the 100 or 500 ppm test compound formulation. As an untreated control, a water-acetone-DMF-emulsifier solution containing no test compound was also applied to runoff to infested plants. The treated plants were stored for one day for buckthorn aphid and three days for cotton aphid, after which the dead aphids were counted.

[9] = system: tobacco budworm (Heliothis virescens); test: Tobacco budworm (TBW) treated cotton leaf test; details: cotton leaves, 100 ppm; second instar larvae, five days
Protocol: as §2
Tobacco budworm (TBW): Cotton leaves were wet to runoff with the 100 ppm test compound formulation. As an untreated control, a water-acetone-DMF-emulsifier solution containing no test compound was also applied wet to runoff to cotton leaves. Ten randomly selected second instar tobacco budworm larvae were introduced into plastic containers in which moist dental wicks and the dry treated leaves had been placed. The cups were closed and held for five days. Larvae which were unable to move the length of the body, even upon stimulation by prodding, were considered dead.

[10] = system: southern armyworm (Spodoptera eridania); test: Southern armyworm (SAW) treated bean leaf test; details: bean leaves, 100 or 500 ppm; second instar larvae, five days
Protocol: as §2, §3

[11] = system: southern corn rootworm (Diabrotica undecimpunctata howardi); test: Southern corn rootworm (SCRW) soil test; details: soil concentration 2.5, 5, 6.75 or 10 ppm; mortality eight days after infestation
Protocol: as §2
For southern corn rootworm and black cutworm tests, the water-acetone-DMF-emulsifier solution was adjusted for a treatment rate of 2.5, 5, 6.75 or 10 ppm.
Southern corn rootworm (SCRW), Black cutworm (BCW): Corn seeds were placed in a glass jar and covered with dry sandy loam soil. The 500 ppm test formulation was applied for a soil concentration of 2.5, 5, 6.75 or 10 ppm. As an untreated control, an aliquot of a water-acetone-DMF-emulsifier solution containing no test compound was applied in a similar manner. After incubating covered for 24 hours, the soil was mixed and inoculated with approximately 25 southern corn rootworm eggs. Following an additional 48 hours, two late second to early third instar black cutworms were placed in the jar with a portion of insect diet. Eight days after infestation, mortality was assessed visually for cutworm and by Berlese funnel extraction for rootworm.

[12] = system: house fly (Musca domestica); test: House fly (HF) bait test; details: sucrose bait, 100 or 250 ppm; adult flies, mortality after 24 hours
Protocol: as §2
For house fly tests, the water-acetone-DMF-emulsifier solution was adjusted with a 20% by weight aqueous solution of sucrose to provide a final 100 or 250 ppm concentration of the test compound.
House fly (HF): Four to six day old adult house flies were used. The files were immobilized by anesthetizing with carbon dioxide. A bait cup was prepared which contained the 100 or 250 ppm test compound formulation/sucrose solution and one or two absorbent cotton pad(s). As an untreated control, a water-acetone-DMF-emulsifier-sucrose solution containing no test compound was applied in a similar manner. The bait cup was introduced inside the cage prior to admitting 12-25 anesthetized flies. Mortality was assessed after 24 hours.

Row | Compound | BCW-Sys [1] | ACR [3] | WCRW [4] | SRKN [5] | GA-Sys [6] | CA [8] | TBW [9] | also measured
1 | CC(O)c1c(SC(F)(F)F)c(C#N)nn1-c1c(Cl)cc(C(F)(F)F)cc1Cl (centres unmarked) [Compound 8, 3-Cyano-1-(2,6-dichloro-4-trifluoromethylphenyl)-5-(1-hydroxy)ethyl-4-trifluoromethylthiopyrazole] | + (active against 1 or more insects described above up to 100% mortality. This activity is indicated by a “+”) | – | – | – | – | – | – | –
2 | N#Cc1nn(-c2c(Cl)cc(C(F)(F)F)cc2Cl)c(C(O)C(F)(F)F)c1SC(F)(F)F (centres unmarked) [Compound 17, 3-Cyano-1-(2,6-dichloro-4-trifluoromethylphenyl)-5-(1-hydroxy-2,2,2-trifluoroethyl)-4-trifluoromethylthiopyrazole] | – | + (active against 1 or more insects described above up to 100% mortality. This activity is indicated by a “+”) | + (active against 1 or more insects described above up to 100% mortality. This activity is indicated by a “+”) | – | – | – | – | CA-Sys [2]: + (active against 1 or more insects described above up to 100% mortality. This activity is indicated by a “+”)
3 | N#Cc1nn(-c2c(Cl)cc(C(F)(F)F)cc2Cl)c(CO)c1[S+]([O-])C(F)(F)F (centres unmarked) [Compound 12, 3-Cyano-1-(2,6-dichloro-4-trifluoromethylphenyl)-5-(hydroxy)methyl-4-trifluoromethylsulfinylpyrazole] | + (active against 1 or more insects described above up to 100% mortality. This activity is indicated by a “+”) | – | – | + (active against 1 or more insects described above up to 100% mortality. This activity is indicated by a “+”) | + (active against 1 or more insects described above up to 100% mortality. This activity is indicated by a “+”) | – | – | –
4 | C=C(OC(C)=O)c1c(S(=O)(=O)C(F)(F)F)c(C#N)nn1-c1c(Cl)cc(C(F)(F)F)cc1Cl [Compound 21, 3-Cyano-1-(2,6-dichloro-4-trifluoromethylphenyl)-5-(1-acetoxyethenyl)-4-trifluoromethylsulfonylpyrazole] | – | – | + (active against 1 or more insects described above up to 100% mortality. This activity is indicated by a “+”) | – | + (active against 1 or more insects described above up to 100% mortality. This activity is indicated by a “+”) | + (active against 1 or more insects described above up to 100% mortality. This activity is indicated by a “+”) | + (active against 1 or more insects described above up to 100% mortality. This activity is indicated by a “+”) | MBB [7]: + (active against 1 or more insects described above up to 100% mortality. This activity is indicated by a “+”)
5 | COC(C#N)c1c([S+]([O-])C(F)(F)F)c(C#N)nn1-c1c(Cl)cc(C(F)(F)F)cc1Cl (centres unmarked) [Compound 14, 3-Cyano-5-{(1-cyano-1-methoxy)methyl}-1-(2,6-dichloro-4-trifluoromethylphenyl)-4-trifluoromethylsulfinylpyrazole] | – | + (active against 1 or more insects described above up to 100% mortality. This activity is indicated by a “+”) | + (active against 1 or more insects described above up to 100% mortality. This activity is indicated by a “+”) | + (active against 1 or more insects described above up to 100% mortality. This activity is indicated by a “+”) | – | + (active against 1 or more insects described above up to 100% mortality. This activity is indicated by a “+”) | + (active against 1 or more insects described above up to 100% mortality. This activity is indicated by a “+”) | SAW [10]: + (active against 1 or more insects described above up to 100% mortality. This activity is indicated by a “+”); SCRW [11]: + (active against 1 or more insects described above up to 100% mortality. This activity is indicated by a “+”); HF [12]: + (active against 1 or more insects described above up to 100% mortality. This activity is indicated by a “+”)

Source: patent US6395906B1, “Intermediates to pesticidal 1-arylpyrazoles” (Rhone-Poulenc Inc., priority 1995, dated 2002)
